Test results as given in patent US10053453B2, “Compounds and their use as BACE inhibitors” (AstraZeneca AB, priority 2014, dated 2018).
Read-outs that look alike come from different tables or passages of the source.

Legend:
[1] = target: T1, Human BACE1 (Homo sapiens, UniProt P56817); assay: Diluted TR-FRET assay; format: biochemical; conditions: 50 times less enzyme, 6.5 h reaction time at r.t.; read-out: IC50 BACE1 (dil. TR-FRET)
T1 construct: the soluble part of the human β-Secretase1 (AA1-AA460) was cloned using the BACE1(1-460)-(AVT)-Fc-pGEN-IRES-neo mammalian expression vector; AVT linker (C); made in house
Description: (§1) The β-secretase enzyme used in the TR-FRET was prepared as follows:
(§2) Human BACE1: the cDNA for the soluble part of the human β-Secretase1 (AA1-AA460) was cloned using the BACE1(1-460)-(AVT)-Fc-pGEN-IRES-neo mammalian expression vector. The gene was fused to the Fe domain of IgG1 (affinity tag) and stably cloned into HEK 293 cells. […]
A multidrop Combi was used for the liquid handling. Enzyme (7 μL) was added to the compound plate (containing 0.8 μL of compound in dimethylsulphoxide). The plate was incubated for 10 minutes. […] The reaction was stopped with the addition of Stop solution (5.5 μL, NaOAC, pH 9). Fluorescence was measured on a Pherastar plate reader using HTRF module. […] 5 reference inhibitors with different affinities were used at all screen occasions in dose response.

[2] = target: T2, Human BACE2 (Homo sapiens, UniProt Q9Y5Z0); assay: TR-FRET assay; format: biochemical; conditions: substrate 100 nM, pH4.5
T2 construct: the soluble part of the human β-Secretase2 (AA1-AA473) was cloned using BACE2(1-473)-(AVT)-Fc-pDEST12.2 mammalian expression vector; AVT linker (C); made in house
T2 sequence (Q9Y5Z0 21-473): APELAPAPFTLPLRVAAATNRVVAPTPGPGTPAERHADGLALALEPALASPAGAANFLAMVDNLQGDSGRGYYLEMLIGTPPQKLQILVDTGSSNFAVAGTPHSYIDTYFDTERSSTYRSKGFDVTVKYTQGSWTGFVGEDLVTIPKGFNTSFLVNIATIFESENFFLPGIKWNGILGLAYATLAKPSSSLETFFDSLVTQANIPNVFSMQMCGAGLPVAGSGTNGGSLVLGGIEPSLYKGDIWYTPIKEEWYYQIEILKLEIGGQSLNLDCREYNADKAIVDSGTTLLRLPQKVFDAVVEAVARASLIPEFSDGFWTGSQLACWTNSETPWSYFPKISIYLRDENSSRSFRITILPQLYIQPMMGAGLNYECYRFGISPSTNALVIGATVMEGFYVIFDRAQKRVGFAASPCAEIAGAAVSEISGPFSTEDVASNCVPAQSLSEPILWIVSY
Description: as §1, §2
A multidrop Combi was used for the liquid handling. Enzyme (7 μL) was added to the compound plate (containing 0.8 μL of compound in dimethylsulphoxide). The plate was incubated for 10 minutes. Substrate (8 μL) was then added, and the reaction proceeded for 17 minutes at r.t. The reaction was stopped with the addition of Stop solution (5.5 μL, NaOAC, pH 9). Fluorescence was measured on a Pherastar plate reader using HTRF module. […] 5 reference inhibitors with different affinities were used at all screen occasions in dose response.

[3] = system: SH-SY5Y cells; assay: sAPPβ release assay
[4] = Homo sapiens, SH-SY5Y, read-out: IC50 Cell (sAPPβ release, nM), SH-SY5Y cells, compounds incubated 16-17 h

T1 sequence (P56817 22-460): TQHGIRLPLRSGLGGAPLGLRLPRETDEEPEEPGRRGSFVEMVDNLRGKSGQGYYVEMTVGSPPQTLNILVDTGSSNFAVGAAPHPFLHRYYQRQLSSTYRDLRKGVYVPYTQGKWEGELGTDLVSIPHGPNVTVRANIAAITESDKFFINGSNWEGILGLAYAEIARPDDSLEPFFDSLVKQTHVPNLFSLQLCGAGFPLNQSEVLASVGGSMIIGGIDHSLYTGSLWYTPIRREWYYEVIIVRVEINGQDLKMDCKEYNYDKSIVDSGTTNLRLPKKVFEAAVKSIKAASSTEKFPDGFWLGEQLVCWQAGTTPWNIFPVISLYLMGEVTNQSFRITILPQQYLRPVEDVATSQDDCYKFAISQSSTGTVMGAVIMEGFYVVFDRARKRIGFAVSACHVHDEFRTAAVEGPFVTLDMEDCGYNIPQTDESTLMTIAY

| IC50 [1] | IC50 ([2]; enzyme 2.7 μg/mL) | IC50 [3, 4] | IC50 ([2]; enzyme […]) | IC50 ([3]; read-out: IC50 Cell (sAPPβ release), SH-SY5Y cells, compounds incubated 16-17 h) | SMILES |
| --- | --- | --- | --- | --- | --- |
| 67 nM | 256 nM | 1.6 nM | – | – | [2H]C1([2H])OC(N)=NC12c1cc(-c3cncc(C)c3)ccc1C[C@@]21CC[C@H](OC)[C@@H](C)C1 (stereo partly drawn) [Compound 21, (1S,3S,4S)-4-methoxy-3-methyl-6′-(5-methylpyridin-3-yl)-3′H,5″H-dispiro[cyclohexane-1,2′-indene-1′,4″-oxazol]-5″,5″-d2-2″-amine] |
| 19.6 nM | 78.4 nM | 2.6 nM | – | – | [2H]C1([2H])OC(N)=N[C@]12c1cc(-c3cncc(C(F)(F)F)c3)ccc1C[C@@]21CC[C@H](OC)[C@@H](C)C1 [Compound 26] |
| 67 nM | 255 nM | 1.6 nM | – | – | [2H]C1([2H])OC(N)=N[C@]12c1cc(-c3cncc(C)c3)ccc1C[C@@]21CC[C@H](OC)[C@@H](C)C1 [Compound 28] |
| 55.7 nM | 79.2 nM | 2.6 nM | – | – | [2H]C1([2H])OC(N)=N[C@]12c1cc(-c3cncc(C(F)(F)F)c3)ccc1C[C@]21CC[C@@H](OC)[C@H](C)C1 [Compound 29, (1R,1′R,3R,4R)-4-methoxy-3-methyl-6′-(5-(trifluoromethyl)pyridin-3-yl)-3′H,5″H-dispiro[cyclohexane-1,2′-indene-1′,4″-oxazol]-5″,5″-d2-2″-amine] |
| 24.3 nM | 90.8 nM | 2.4 nM | – | – | CO[C@H]1[C@H](C)C[C@@]2(Cc3ccc(-c4cncc(C#N)c4)cc3[C@@]23COC(N)=N3)C[C@@H]1C [Compound 31, 5-((1r,3R,4r,5S)-2″-amino-4-methoxy-3,5-dimethyl-3′H,5″H-dispiro[cyclohexane-1,2′-indene-1′,4″-oxazol]-6′-yl)nicotinonitrile] |
| 11.7 nM | – | – | 22.7 nM | 0.5 nM | [2H]C1([2H])OC(N)=N[C@]12c1cc(-c3cncc(Cl)c3)ccc1C[C@]21CC[C@@H](OC)[C@H](C)C1 [Compound 34, (1R,1′R,3R,4R)-6′-(5-chloropyridin-3-yl)-4-methoxy-3-methyl-3′H,5″H-dispiro[cyclohexane-1,2′-indene-1′,4″-oxazol]-5″,5″-d2-2″-amine] |
| 166 nM | 315 nM | 4.3 nM | – | – | CO[C@H]1CC[C@]2(CC1)Cc1ccc(-c3cncc(C#N)c3)cc1[C@@]21COC(N)=N1 [Compound 38, 5-((1r,1′R,4R)-2″-amino-4-methoxy-3′H,5″H-dispiro[cyclohexane-1,2′-indene-1′,4″-oxazol]-6′-yl)nicotinonitrile] |
| 307 nM | 221 nM | 7.3 nM | – | – | CO[C@H]1CC[C@]2(CC1)Cc1ccc(-c3cncc(C(F)(F)F)c3)cc1C21COC(N)=N1 (stereo partly drawn) [Compound 42, (1r,4r)-4-methoxy-6′-(5-(trifluoromethyl)pyridin-3-yl)-3′H,5″H-dispiro[cyclohexane-1,2′-indene-1′,4″-oxazol]-2″-amine] |
| 289 nM | 589 nM | 7.8 nM | – | – | [2H]C1([2H])OC(N)=NC12c1cc(OCCC(F)(F)F)ccc1C[C@]21CC[C@@H](OC)CC1 (stereo partly drawn) [Compound 45, (1r,4r)-4-methoxy-6′-(3,3,3-trifluoropropoxy)-3′H,5″H-dispiro[cyclohexane-1,2′-indene-1′,4″-oxazol]-5″,5″-d2-2″-amine] |
| 219 nM | 300 nM | 8.8 nM | – | – | CO[C@H]1CC[C@]2(CC1)Cc1ccc(-c3cncc(C#N)c3)cc1C21COC(N)=N1 (stereo partly drawn) [Compound 46, 5-((1r,4r)-2″-amino-4-methoxy-3′H,5″H-dispiro[cyclohexane-1,2′-indene-1′,4″-oxazol]-6′-yl)nicotinonitrile] |

Further lines, the compound ahead of its results:

| SMILES | IC50 [1] | IC50 ([2]; enzyme 2.7 μg/mL) | IC50 [3, 4] | IC50 ([2]; enzyme […]) | IC50 ([3]; read-out: IC50 Cell (sAPPβ release), SH-SY5Y cells, compounds incubated 16-17 h) |
| --- | --- | --- | --- | --- | --- |
| [2H]C1([2H])OC(N)=N[C@]12c1cc(-c3cc(C#N)cc(OC)c3)ccc1C[C@@]21CC[C@H](OC)[C@@H](C)C1 [Compound 23, 3-((1S,1′R,3S,4S)-2″-amino-4-methoxy-3-methyl-3′H,5″H-dispiro[cyclohexane-1,2′-indene-1′,4″-oxazol]-6′-yl-5″,5″-d2)-5-methoxybenzonitrile] | 7.3 nM | 21.4 nM | 1.5 nM | – | – |
| [2H]C1([2H])OC(N)=N[C@]12c1cc(-c3cc(C#N)cc(OC)c3)ccc1C[C@]21CC[C@@H](OC)[C@H](C)C1 [Compound 24, 3-((1R,1′R,3R,4R)-2″-amino-4-methoxy-3-methyl-3′H,5″H-dispiro[cyclohexane-1,2′-indene-1′,4″-oxazol]-6′-yl-5″,5″-d2)-5-methoxybenzonitrile] | 18 nM | 18 nM | 3.2 nM | – | – |
| [2H]C1([2H])OC(N)=N[C@]12c1cc(-c3cccc(Cl)c3)ccc1C[C@@]21CC[C@H](OC)[C@@H](C)C1 [Compound 27] | 12 nM | 24.7 nM | 2.8 nM | – | – |
| [2H]C1([2H])OC(N)=NC12c1cc(-c3cc(C#N)cc(OC)c3)ccc1C[C@@]21C[C@@H](C)[C@H](OC)[C@@H](C)C1 (stereo partly drawn) [Compound 32, 3-((1r,3R,4r,5S)-2″-amino-4-methoxy-3,5-dimethyl-3′H,5″H-dispiro[cyclohexane-1,2′-indene-1′,4″-oxazol]-6′-yl-5″,5″-d2)-5-methoxybenzonitrile] | 7.3 nM | 26.2 nM | 2.8 nM | – | – |
| [2H]C1([2H])OC(N)=N[C@]12c1cc(-c3cccc(Cl)c3)ccc1C[C@]21CC[C@@H](OC)[C@H](C)C1 [Compound 37, (1R,1′R,3R,4R)-6′-(3-chlorophenyl)-4-methoxy-3-methyl-3′H,5″H-dispiro[cyclohexane-1,2′-indene-1′,4″-oxazol]-5″,5″-d2-2″-amine] | 12.8 nM | 17.4 nM | 3.7 nM | – | – |
| [2H]C1([2H])OC(N)=NC12c1cc(-c3cc(Cl)cc(C#N)c3)ccc1C[C@@]21C[C@@H](C)[C@H](OC)[C@@H](C)C1 (stereo partly drawn) [Compound 39, 3-((1r,3R,4r,5S)-2″-amino-4-methoxy-3,5-dimethyl-3′H,5″H-dispiro[cyclohexane-1,2′-indene-1′,4″-oxazol]-6′-yl-5″,5″-d2)-5-chlorobenzonitrile] | 4.7 nM | 50.7 nM | 4.3 nM | – | – |
| [2H]C1([2H])OC(N)=NC12c1cc(C([2H])([2H])C([2H])([2H])C(C)C)ccc1C[C@@]21C[C@@H](C)[C@H](OC)[C@@H](C)C1 (stereo partly drawn) [Compound 40, (1r,3R,4r,5S)-4-methoxy-3,5-dimethyl-6′-(3-methylbutyl-1,1,2,2-d4)-3′H,5″H-dispiro[cyclohexane-1,2′-indene-1′,4″-oxazol]-5″,5″-d2-2″-amine] | 32.9 nM | 118 nM | 4.4 nM | – | – |
| [2H]C1([2H])OC(N)=NC12c1cc(CCC(C)C)ccc1C[C@@]21C[C@@H](C)[C@H](OC)[C@@H](C)C1 (stereo partly drawn) [Compound 43, (1r,3R,4r,5S)-6′-isopentyl-4-methoxy-3,5-dimethyl-3′H,5″H-dispiro[cyclohexane-1,2′-indene-1′,4″-oxazol]-5″,5″-d2-2″-amine] | 13.6 nM | 194 nM | 7.5 nM | – | – |
| [2H]C1([2H])OC(N)=NC12c1cc(-c3cc(C#N)cc(OC)c3)ccc1C[C@@]21CC[C@H](O)[C@@H](C)C1 (stereo partly drawn) [Compound 49, 3-((1S,3S,4S)-2″-amino-4-hydroxy-3-methyl-3′H,5″H-dispiro[cyclohexane-1,2′-indene-1′,4″-oxazol]-6′-yl-5″,5″-d2)-5-methoxybenzonitrile] | 166 nM | 69 nM | 15.8 nM | – | – |
| CO[C@H]1CC[C@]2(CC1)Cc1ccc(CCC(C)C)cc1C21COC(N)=N1 (stereo partly drawn) [Compound 51, (1r,4r)-6′-isopentyl-4-methoxy-3′H,5″H-dispiro[cyclohexane-1,2′-indene-1′,4″-oxazol]-2″-amine] | 188 nM | 306 nM | 20.6 nM | – | – |
| [2H]C1([2H])OC(N)=NC12c1cc(/C=N/OCCC)ccc1C[C@]21CC[C@@H](OC)CC1 (stereo partly drawn) [Compound 53, (E)-2″-amino-4-methoxy-3′H,5″H-dispiro[cyclohexane-1,2′-indene-1′,4″-oxazole]-5″,5″-d2-6′-carbaldehyde O-propyl oxime] | 665 nM | 652 nM | 24.8 nM | – | – |
